The values below come from ChEMBL document CHEMBL4814075, “Novel Thienopyrimidines as Acetyl-CoA Carboxylase Inhibitors for Treating Liver Diseases” (ACS Med Chem Lett, 2021).

For the assay, the target named is Acetyl-CoA carboxylase 1 (Homo sapiens, UniProt Q13085). In words: Inhibition of ACC1 in human HepG2 cells assessed as lipid content using 13C-labelled acetate as substrate incubated for 1 hr followed by substrate addition and measured after 24 hrs by QTOF mass spectrometer. Format: cell-based.

As for `COc1ccccc1[C@H](Cn1c(=O)n(C(C)(C)C(=O)NS(=O)(=O)C2(C)CC2)c(=O)c2c(C)c(-c3ncco3)sc21)O[C@@H]1C[C@H]2CC[C@@H](C1)O2`, the EC50 is 1 nM. The same measure for `COc1ccccc1[C@H](Cn1c(=O)n(C2(C(=O)NS(=O)(=O)C3(C)CC3)CC2)c(=O)c2c(C)c(-n3nccn3)sc21)O[C@@H]1C[C@H]2CC[C@@H](C1)O2`: 1 nM; for `COc1ccccc1[C@H](Cn1c(=O)n(C(C)(C)C(=O)NS(=O)(=O)C2(C)CC2)c(=O)c2c(C)c(-n3nccn3)sc21)O[C@@H]1C[C@H]2CC[C@@H](C1)O2`: 1 nM.

Consider `Cc1c(-n2nccn2)sc2c1c(=O)n(C1(C(=O)NS(=O)(=O)C3(C)CC3)CC1)c(=O)n2C[C@H](O[C@@H]1C[C@H]2CC[C@@H](C1)O2)c1cc(F)ccc1OC(F)F`, for which the EC50 is 0.9 nM.

In the case of `COc1ccccc1[C@H](Cn1c(=O)n([C@H](C)C(=O)NS(=O)(=O)C2(C)CC2)c(=O)c2c(C)c(-c3ncco3)sc21)O[C@@H]1C[C@H]2CC[C@@H](C1)O2`, the EC50 came to 1 nM. The same measure for `COc1ccc(F)cc1[C@H](Cn1c(=O)n(C(C)(C)C(=O)NS(=O)(=O)C2(C)CC2)c(=O)c2c(C)c(-n3nccn3)sc21)O[C@@H]1C[C@H]2CC[C@@H](C1)O2`: 0.3 nM.
